The values that follow come from patent US20250026745A1 (Bluejay Therapeutics, Inc., priority 2023, published 2025).

Experiment [1] concerns the target HEK293 cells expressing 17β-HSD13 (Homo sapiens (Human), UniProt Q7Z5P4). Description: 17β-HSD13 cell-based assay (β-estradiol conversion, LC-MS/MS). As for the experimental part: HEK293 cells expressing 17β-HSD13 either stably or transiently were incubated with compounds for 60 min at 37° C. in a humidified incubator. After this first incubation step, β-estradiol was added to each well of the microtiter plate and incubated for 3 h at 37° C. in the humidified incubator. After treatment with β-Estradiol, 50 μL of supernatant was transferred to a 96-V plate containing 100 μL acetonitrile and centrifuged at 3900 rpm for 45 min. Finally, 50 μL of supernatant were taken for LC-MS/MS analysis. The chromatography part was run on a Xbridge 30 mm×2.1 mm column (Waters), at 40 degrees Celsius and a flow rate of 0.8 mL/min for 5 min, while the MS was done on a Q Exactive Orbitrap (Fisher Scientific) in Target SIM mode and negative polarity with a spray voltage of 3.5 kV. EC50 values were determined with GraphPad Prism®, where log-transformed concentration values and the inhibition data were fitted to a four-parameter logistic equation. Y=Bottom+(Top−Bottom)/(1+10^((Log EC50−X)*Hill Slope)). The original, % control, or % inhibition data are represented by Y along with their minimal (Bottom) and maximal (Top) values. The inhibitor concentration is represented by X, EC50 is the concentration at 50% maximal value, and Hill Slope is the slope factor.

Experiment [2] concerns the target recombinant 17β-HSD13 protein (Homo sapiens (Human), UniProt Q7Z5P4). Put plainly: 17β-HSD13 biochemical assay (NAD+/NADH Glo chemiluminescence). The settings on record: 17β-HSD13 50 nM, NAD+ 10 mM, β-estradiol 20 μM, 2 hours room temperature. The protocol: 17β-HSD13 biochemical assays are generically described in patents WO 2022/020730, WO 2021/003295, and WO 2023/023310. More specifically, recombinant 17β-HSD13 protein was assayed in a buffer containing 200 mM Tris pH 7.5, 0.01% Triton X-100, and 0.02% BSA into a 384-well assay plate. Compounds were incubated with 17β-HSD13 (final 50 nM) and NAD+ (final 10 mM) at room temperature for 1 h prior to substrate addition. The assay reaction was then initiated by addition of β-estradiol (final 20 μM), and the reaction mixture was incubated for 2 hours at room temperature. Product formation was detected with chemiluminescence by adding equal volume of NAD+/NADH Glo reagent (Promega, #G9062) and read on a PHERAstar microplate reader (BMG LABTECH). IC50 values were determined with GraphPad Prism®, where log-transformed concentration values and the inhibition data were fitted to a four-parameter logistic equation. Y=Bottom+(Top−Bottom)/(1+10^((Log IC50−X)*HillSlope)). The original, % control, or % inhibition data are represented by Y along with their minimal (Bottom) and maximal (Top) values. The inhibitor concentration is represented by X, IC50 is the concentration at 50% maximal value, and Hill Slope is the slope factor.

[3] abbreviates: HEK293 cells transiently expressing 17β-HSD13 (footnote a), read-out: EC50, nM Transient.
[4] abbreviates: HEK293 cells stably expressing 17β-HSD13 (footnote b), read-out: EC50, nM Stable.

Where two headings read alike, the source gives them in different places.

Chain of HEK293 cells expressing 17β-HSD13 (Q7Z5P4 20-300): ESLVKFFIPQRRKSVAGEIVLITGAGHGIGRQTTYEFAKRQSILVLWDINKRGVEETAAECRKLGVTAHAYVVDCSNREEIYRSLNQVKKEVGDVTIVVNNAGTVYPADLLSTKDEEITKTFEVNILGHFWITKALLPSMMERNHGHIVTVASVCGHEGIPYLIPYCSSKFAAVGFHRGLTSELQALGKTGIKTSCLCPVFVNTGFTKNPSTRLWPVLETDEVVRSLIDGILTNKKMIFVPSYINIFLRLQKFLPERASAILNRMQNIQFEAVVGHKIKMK
Chain of recombinant 17β-HSD13 protein (Q7Z5P4 20-300): as above

With `O=C1N(CC23CC(C2)C3)C(=O)C2(CC2)N1Cc1nnc(-c2ccc(F)c(O)c2F)s1` [Compound I-6, 6-(bicyclo[1.1.1]pentan-1-ylmethyl)-4-((5-(2,4-difluoro-3-hydroxyphenyl)-1,3,4-thiadiazol-2-yl)methyl)-4,6-diazaspiro[2.4]heptane-5,7-dione], the EC50 in experiment [1] (setting [3]) is 165 nM. Also, the IC50 in experiment [2] was 22.1 ± 2.18 nM.

With `O=C1N([C@@H](c2ccccc2)C(F)(F)F)C(=O)C2(CC2)N1Cc1nnc(-c2ccc(F)c(O)c2F)s1` [Compound I-99A, 4-[[5-(2,4-difluoro-3-hydroxy-phenyl)-1,3,4-thiadiazol-2-yl]methyl]-6-[(1S)-2,2,2-trifluoro-1-phenyl-ethyl]-4,6-diazaspiro[2.4]heptane-5,7-dione], the EC50 in experiment [1] (setting [4]) was determined as 4.95 ± 0.0122 nM. Moreover, in experiment [2], the concentration for half-maximal inhibition (IC50) worked out at 1.17 ± 0.185 nM.

Consider `CC[C@@H](C)N1C(=O)N(Cc2nnc(-c3ccc(F)c(O)c3F)s2)C2(CC2)C1=O` [Compound I-42, (R)-6-(sec-butyl)-4-((5-(2,4-difluoro-3-hydroxyphenyl)-1,3,4-thiadiazol-2-yl)methyl)-4,6-diazaspiro[2.4]heptane-5,7-dione], for which the EC50 in experiment [1] (setting [4]) turned out to be 15.7 nM. The concentration for half-maximal inhibition (IC50) in experiment [2] was found to be 4.08 nM.

As for `O=C1N(CC(F)(F)F)C(=O)C2(CC2)N1Cc1nnc(-c2cc(F)c(F)c(O)c2F)s1` [Compound I-68, 4-((5-(2,4,5-trifluoro-3-hydroxyphenyl)-1,3,4-thiadiazol-2-yl)methyl)-6-(2,2,2-trifluoroethyl)-4,6-diazaspiro[2.4]heptane-5,7-dione], the concentration for a half-maximal effect (EC50) in experiment [1] (setting [4]) was 35 nM.

Consider `CCN1C(=O)N(Cc2nnc(-c3ccc(Cl)c(O)c3Cl)s2)C2(CC2)C1=O` [Compound I-9, 4-((5-(2,4-dichloro-3-hydroxyphenyl)-1,3,4-thiadiazol-2-yl)methyl)-6-ethyl-4,6-diazaspiro[2.4]heptane-5,7-dione], for which, in experiment [1] (setting [3]), the EC50 came out at 960 nM. Also, in experiment [2], the IC50 turned out to be 150 nM.

Take `O=C1N([C@H](c2ccc(F)cc2F)C(F)(F)F)C(=O)C2(CC2)N1Cc1nnc(-c2ccc(F)c(O)c2F)s1` [Compound I-90A, (R)-4-((5-(2,4-difluoro-3-hydroxyphenyl)-1,3,4-thiadiazol-2-yl)methyl)-6-(1-(2,4-difluorophenyl)-2,2,2-trifluoroethyl)-4,6-diazaspiro[2.4]heptane-5,7-dione]: the EC50 in experiment [1] (setting [4]) came to 8.38 nM. In addition, in experiment [2], the IC50 turned out to be 1.01 ± 0.125 nM.

For “6-cyclopropyl-4-[[5-(2,4-difluoro-3-hydroxy-phenyl)-1,3,4-thiadiazol-2-yl]methyl]-4,6-diazaspiro[2.4]heptane-5,7-dione [Compound I-41]”, the EC50 in experiment [1] (setting [4]) was 18.9 nM. The IC50 in experiment [2] was 4.15 nM.

In the case of `C[C@@H](c1ccccc1)N1C(=O)N(Cc2nnc(-c3ccc(F)c(O)c3F)s2)C2(CC2)C1=O` [Compound I-83, (S)-4-((5-(2,4-difluoro-3-hydroxyphenyl)-1,3,4-thiadiazol-2-yl)methyl)-6-(1-phenylethyl)-4,6-diazaspiro[2.4]heptane-5,7-dione], in experiment [1] (setting [4]), the EC50 amounted to 10.4 nM. The IC50 in experiment [2] amounted to 2 ± 0.588 nM.

`O=C1N(Cc2ccccc2)C(=O)C2(CC2)N1Cc1nnc(-c2cc(F)c(F)c(O)c2F)s1` [Compound I-69, 6-benzyl-4-((5-(2,4,5-trifluoro-3-hydroxyphenyl)-1,3,4-thiadiazol-2-yl)methyl)-4,6-diazaspiro[2.4]heptane-5,7-dione]: in experiment [1] (setting [4]), the EC50 stood at 21.5 nM.

For `O=C1N(C(c2ccc(F)cc2F)C(F)(F)F)C(=O)C2(CC2)N1Cc1nnc(-c2ccc(F)c(O)c2Cl)s1` (single isomer, unassigned) [Compound I-54A], in experiment [1] (setting [4]), the concentration giving a half-maximal response (EC50) was found to be 5.63 ± 0.961 nM. The IC50 in experiment [2] was 0.857 ± 0.153 nM.

Turning to `CCN1C(=O)C(C)N(Cc2nnc(-c3ccc(F)c(O)c3F)s2)C1=O` (centres unmarked) [Compound I-3, 1-((5-(2,4-difluoro-3-hydroxyphenyl)-1,3,4-thiadiazol-2-yl)methyl)-3-ethyl-5-methylimidazolidine-2,4-dione], the EC50 in experiment [1] (setting [3]) was found to be 175 nM. For the same compound, the IC50 in experiment [2] was found to be 86.1 nM.

Take `O=C1N([C@@H](c2ccccc2)C(F)(F)F)C(=O)C2(CC2)N1Cc1nnc(-c2ccc(F)c(O)c2Cl)s1` [Compound I-52, 4-[[5-(2-chloro-4-fluoro-3-hydroxy-phenyl)-1,3,4-thiadiazol-2-yl]methyl]-6-[(1S)-2,2,2-trifluoro-1-phenyl-ethyl]-4,6-diazaspiro[2.4]heptane-5,7-dione]: the EC50 in experiment [1] (setting [4]) was determined as 6.41 ± 1.23 nM. Moreover, the IC50 in experiment [2] is 1.09 ± 0.23 nM.

Consider `O=C1N(Cc2ccccc2)C(=O)C2(CC2)N1Cc1nnc(-c2ccc(F)c(O)c2Cl)s1` [Compound I-35, 6-benzyl-4-((5-(2-chloro-4-fluoro-3-hydroxyphenyl)-1,3,4-thiadiazol-2-yl)methyl)-4,6-diazaspiro[2.4]heptane-5,7-dione], for which the EC50 in experiment [1] (setting [4]) was 40.9 nM. Besides, the concentration for half-maximal inhibition (IC50) in experiment [2] came to 5.33 nM.

For `CCCN1C(=O)N(Cc2nnc(-c3ccc(F)c(O)c3F)s2)C2(CC2)C1=O` [Compound I-4, 4-((5-(2,4-difluoro-3-hydroxyphenyl)-1,3,4-thiadiazol-2-yl)methyl)-6-propyl-4,6-diazaspiro[2.4]heptane-5,7-dione], in experiment [1] (setting [3]), the EC50 came out at 20.6 nM. Also, the IC50 in experiment [2] came out at 10.6 ± 0.919 nM.

On to `O=C1N(C(c2ccc(F)cc2F)C(F)(F)F)C(=O)C2(CC2)N1Cc1nnc(-c2ccc(F)c(O)c2Cl)s1` (centres unmarked) [Compound I-54, 4-[[5-(2-chloro-4-fluoro-3-hydroxy-phenyl)-1,3,4-thiadiazol-2-yl]methyl]-6-[1-(2,4-difluorophenyl)-2,2,2-trifluoro-ethyl]-4,6-diazaspiro[2.4]heptane-5,7-dione], for which, in experiment [1] (setting [4]), the EC50 amounted to 10.7 nM. Moreover, the IC50 in experiment [2] worked out at 1.53 nM.

`O=C1N(CC(F)(F)F)C(=O)C2(CC2)N1Cc1nnc(-c2ccc(F)c(O)c2F)s1` [Compound I-15, 4-((5-(2,4-difluoro-3-hydroxyphenyl)-1,3,4-thiadiazol-2-yl)methyl)-6-(2,2,2-trifluoroethyl)-4,6-diazaspiro[2.4]heptane-5,7-dione]: the EC50 in experiment [1] (setting [4]) is 40.9 ± 25 nM. For the same compound, the IC50 in experiment [2] stood at 8.07 ± 1.77 nM.

Turning to `CCN1C(=O)N(Cc2nnc(-c3cc(O)cc(C(F)(F)F)c3)s2)C2(CC2)C1=O` [Compound I-22, 6-ethyl-4-((5-(3-hydroxy-5-(trifluoromethyl)phenyl)-1,3,4-thiadiazol-2-yl)methyl)-4,6-diazaspiro[2.4]heptane-5,7-dione], in experiment [1] (setting [4]), the EC50 came out at 144 nM. Moreover, the IC50 in experiment [2] was 41 ± 3.9 nM.

Take `O=C1N(Cc2ccccc2)C(=O)C2(CC2)N1Cc1nnc(-c2ccc(F)c(O)c2F)s1` [Compound I-20, 6-benzyl-4-((5-(2,4-difluoro-3-hydroxyphenyl)-1,3,4-thiadiazol-2-yl)methyl)-4,6-diazaspiro[2.4]heptane-5,7-dione]: in experiment [1] (setting [4]), the EC50 was found to be 11.6 nM. Besides, the IC50 in experiment [2] was 2.28 ± 0.933 nM.

For the compound `Cc1c(-c2nnc(CN3C(=O)N([C@@H](c4ccccc4)C(F)(F)F)C(=O)C34CC4)s2)ccc(F)c1O` [Compound I-91, (S)-4-((5-(4-fluoro-3-hydroxy-2-methylphenyl)-1,3,4-thiadiazol-2-yl)methyl)-6-(2,2,2-trifluoro-1-phenylethyl)-4,6-diazaspiro[2.4]heptane-5,7-dione], the EC50 in experiment [1] (setting [4]) stood at 108 nM. Besides, the IC50 in experiment [2] worked out at 4 nM.

For `CCN1C(=O)N(Cc2nnc(-c3ccc(F)c(O)c3Cl)s2)C2(CC2)C1=O` [Compound I-10, 4-((5-(2-chloro-4-fluoro-3-hydroxyphenyl)-1,3,4-thiadiazol-2-yl)methyl)-6-ethyl-4,6-diazaspiro[2.4]heptane-5,7-dione], the EC50 in experiment [1] (setting [4]) came to 51 nM; in experiment [1] (setting [3]) it was 118 nM. In addition, the IC50 in experiment [2] was determined as 17.9 ± 0.0566 nM.

Consider `O=C1N(Cc2ccccc2)C(=O)C2(CC2)N1Cc1nnc(-c2cc(C(F)F)c(F)c(O)c2F)s1` [Compound I-65, 6-benzyl-4-((5-(5-(difluoromethyl)-2,4-difluoro-3-hydroxyphenyl)-1,3,4-thiadiazol-2-yl)methyl)-4,6-diazaspiro[2.4]heptane-5,7-dione], for which the EC50 in experiment [1] (setting [4]) stood at 19.2 nM.

Consider `O=C(O)CN1C(=O)N(Cc2nnc(-c3ccc(F)c(O)c3Cl)s2)C2(CC2)C1=O` [Compound I-45, 2-(4-((5-(2-chloro-4-fluoro-3-hydroxyphenyl)-1,3,4-thiadiazol-2-yl)methyl)-5,7-dioxo-4,6-diazaspiro[2.4]heptan-6-yl)acetic acid], for which the IC50 in experiment [2] is 1030 nM.
